Reference: publication PMC6925343 (ACS chemical biology, 2019)

How the values were obtained:
[1] = tested on: SMAD2 localization in HeLa cells; conditions: CSA 45 min, n = 90 cells, three independent replicates
[2] = tested on: RANBP3 Ser58/Ser126 phosphorylation; experiment: RANBP3 Ser58/Ser126 phosphorylation in CSA treated HeLa cells, Western blot; type: cell-based; conditions: CSA 45 min, anti-pSer58/pSer126-RANBP3 antibody

Question: Which “total SMAD2 levels” value [1] does the source give for Cyclosporine A [CSA] here?
Answer: not changed

Question: What about the “increase of Ser58/Ser126 phosphorylation of RANBP3” value [2] of the same substance?
Answer: approximately 2 fold
